Test results taken from patent EP1263429B1, “ANTIVIRAL THERAPY” (Universiteit Utrecht, priority 2000, dated 2001).

Assays:
[1] = tested on: HIV-1Ba-L; assay: HIV-1 production by chronically infected PBMC, p24-core antigen ELISA; format: cell-based; conditions: Fig 6B; APHS added 5 days after infection, 2 days of incubation
Method: (A, B) Peripheral blood mononuclear cells (PBMC) were isolated from heparinized blood from HIV-1-, HIV-2-, and hepatitis B-seronegative donors and obtained on Ficoll-Hypaque density gradients. Cells were washed twice, stimulated with 5 µg/ml phytohemagglutinin (PHA), and cultured m RPMI-1640 medium supplemented with 5 mM Hepes, 19 mM sodium bicarbonate, 10 µg/mL gentamicin, and 10% heat-inactivated fetal calf serum (PBMC culture medium) at a concentration of 2 x 10^6 cells/ml. After 3 days of incubation stimulated PBMC were recovered from the flasks and infected for 2 hours with HIV-1Ba-L at a multiplicity of infection of 0.01. Afterwards, HIV-infected and mock-infected PBMC were washed twice to remove unbound virus. […] (B) PBMC were cultured in suspension at a concentration of 2 x 10^6 cells/ml in Teflon flasks in PBMC culture medium. […] After 2 days of incubation samples of culture supernatant were collected. p24-core antigen production was quantified using the enzyme-linked immunosorbent assay (ELISA) system of John Moore. […] (C, D) PBMC were isolated from heparinized blood from HIV-1-, HIV-2-, and hepatitis B-seronegative donors and obtained on Ficoll-Hypaque density gradients. […] After 2 days of incubation samples of culture supernatant were collected. p24-core antigen production was quantified using the enzyme-linked immunosorbent assay (ELISA) system of John Moore. […]

[2] = tested on: Monocyte-derived macrophages (MDM); format: cell-based, human
Method: Cell viability is assessed by the MTT assay. In short, cells are incubated with MTT 3-(4,5-dimethylthiazol-2-yl)-2,5-diphenyltetrazollumbromide (Sigma) for 2 hours at 37 °C. During this time viable cells convert MTT into […] formazan dyes. Afterwards crystals are solubilised with a solution containing isopropanol. The OD of the supernatant is measured at 550 nm.
Monocyte-derived macrophages (MDM) were obtained like described above. MDM were then washed twice and cultured for 4 to 7 days in different concentrations of APHS. After a 4 days incubation period cellular viability was assessed by MTT cytotoxicity assay where viable cells convert MTT into a colored formazan dye that can be measured spectrophotometrically.
• Fig. 1 - Plasmids that are used for studies on the effect of compounds on HIV promotor activity. • Fig. 2 - Peripheral blood mononuclear cells (PBMC) were isolated from heparinized blood from HIV-1-, HIV-2-, and hepatitis B-seronegative donors and obtained on Ficoll-Hypaque density gradients. PBMC were washed twice and monocytes were purified by countercurrent centrifugal elutriation. […] After 4 and 5 days of incubation samples of culture supernatant were collected and p24-core antigen production was quantified using the enzyme-linked immunosorbent assay (ELISA) system of John Moore. […]

[3] = tested on: HXB2; assay: IC50 of APHS for HIV-1 strains (Table 2), sensitive strain; format: cell-based; conditions: Human immunodeficiency virus 1, HXB2, read-out: IC50 of APHS

In the case of `CCCCC#CCSc1ccccc1OC(C)=O` [APHS, o-(acetoxy-phenyl)hept-2-ynyl sulphide], the “inhibition of HIV-1 production of chronically infected PBMCs” value [1] is reported as “does not inhibit”, the “cytotoxicity (cellular viability, MTT)” value [2] is reported as “None of the tested concentrations of APHS was found to be cytotoxic” and the IC50 [3] is reported as 12.6 ± 2.3 µM.
